Here are results for 29 compounds from patent US12304916B2, “Thienopyridinyl and thiazolopyridinyl compounds useful as IRAK4 inhibitors” (BRISTOL-MYERS SQUIBB COMPANY, priority 2019, dated 2025).

SMILES strings stand for the structures.

Chain of IRAK4 (Q9NWZ3 whole entry, species assumed): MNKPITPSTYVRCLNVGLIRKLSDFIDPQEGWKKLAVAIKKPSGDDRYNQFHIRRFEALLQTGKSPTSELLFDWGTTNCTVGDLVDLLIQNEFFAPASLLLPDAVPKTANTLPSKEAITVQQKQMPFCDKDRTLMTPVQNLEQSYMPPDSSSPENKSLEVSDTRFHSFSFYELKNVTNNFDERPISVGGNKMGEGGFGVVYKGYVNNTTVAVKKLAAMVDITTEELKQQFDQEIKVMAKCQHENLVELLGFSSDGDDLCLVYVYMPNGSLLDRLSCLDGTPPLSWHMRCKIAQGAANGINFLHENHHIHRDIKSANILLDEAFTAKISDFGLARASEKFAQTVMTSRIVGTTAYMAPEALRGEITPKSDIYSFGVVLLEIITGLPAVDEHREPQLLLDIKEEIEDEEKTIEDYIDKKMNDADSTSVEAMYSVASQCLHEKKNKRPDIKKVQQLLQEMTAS

The first assay has as its target IRAK4 (Homo sapiens (Human), UniProt Q9NWZ3). The assay can be described thus: IRAK4 Inhibition Assay. It is filed as biochemical. Particulars: ATP 500 μM; IRAK4 0.6 nM; 60 min at room temperature. The method, then:
The assays were performed in U-bottom 384-well plates. The final assay volume was 30 μL prepared from 15 μL additions of enzyme and substrates (fluoresceinated peptide and ATP) and test compounds in assay buffer (20 mM HEPES pH 7.2, 10 mM MgCl2, 0.015% Brij 35 and 4 mM DTT). The reaction was initiated by the combination of IRAK4 with substrates and test compounds. The reaction mixture was incubated at room temperature for 60 min. and terminated by adding 45 μL of 35 mM EDTA to each sample. The reaction mixture was analyzed on the Caliper LABCHIP® 3000 (Caliper, Hopkinton, MA) by electrophoretic separation of the fluorescent substrate and phosphorylated product. Inhibition data were calculated by comparison to no enzyme control reactions for 100% inhibition and vehicle-only reactions for 0% inhibition. The final concentrations of reagents in the assays are ATP, 500 μM; FL-IPTSPITTTYFFFKKK peptide 1.5 μM; IRAK4, 0.6 nM; and DMSO, 1.6%.
As for `CC(C)(O)[C@H](F)CNC(=O)c1cnc2sc(-c3cncs3)cc2c1NC1COC1` [Example 53, (R)-N-(2-fluoro-3-hydroxy-3-methylbutyl)-4-(oxetan-3-ylamino)-2-(thiazol-5-yl)thieno[2,3-b]pyridine-5-carboxamide], the IC50 came out at 15.1 nM.
The same measure, in the same setting: the figure for `Cc1ncc(-c2cc3c(NC(C)C)c(C(=O)NC[C@@H](F)C(C)(C)O)cnc3s2)s1` [Example 57, (R)-N-(2-fluoro-3-hydroxy-3-methylbutyl)-4-(isopropylamino)-2-(2-methylthiazol-5-yl)thieno[2,3-b]pyridine-5-carboxamide] is 8.2 nM; for `CC(C)Nc1c(C(=O)NCCc2ccncc2)cnc2sc(-c3ccc(=O)[nH]c3)cc12` [Example 71, 4-(isopropylamino)-2-(6-oxo-1,6-dihydropyridin-3-yl)-N-(2-(pyridin-4-yl)ethyl)thieno[2,3-b]pyridine-5-carboxamide] it is 5.2 nM.
With `CC(C)Nc1c(C(=O)NC[C@@H](F)C(C)(C)O)cnc2sc(-c3cn[nH]c3)cc12` [Example 21, (R)-N-(2-fluoro-3-hydroxy-3-methylbutyl)-4-(isopropylamino)-2-(1H-pyrazol-4-yl)thieno[2,3-b]pyridine-5-carboxamide], the IC50 turned out to be 2.4 nM.
The same measure, in the same setting: the figure for `COC(=O)N[C@H]1CC[C@H](NC(=O)c2cnc3sc(-c4cncs4)cc3c2NC(C)C)CC1` [Example 50, methyl ((1r,4r)-4-(4-(isopropylamino)-2-(thiazol-5-yl)thieno[2,3-b]pyridine-5-carboxamido)cyclohexyl)carbamate] is 9.3 nM; for `COCCNC(=O)c1cnc2sc(-c3cncs3)cc2c1NC(C)C` [Example 34, 4-(isopropylamino)-N-(2-methoxyethyl)-2-(thiazol-5-yl)thieno[2,3-b]pyridine-5-carboxamide] it is 30 nM; for `C[C@H](CO)Nc1c(C(=O)NCCC(C)(C)O)cnc2sc(-c3ccccc3)nc12` [Example 7, (R)-N-(3-hydroxy-3-methylbutyl)-7-((1-hydroxypropan-2-yl)amino)-2-phenylthiazolo[5,4-b]pyridine-6-carboxamide] it is 172 nM.
Still for that read-out and setting: the figure for `C[C@H](CO)Nc1c(C(=O)NCCC#N)cnc2sc(-c3ccccc3)nc12` [Example 9, (R)-N-(2-cyanoethyl)-7-((1-hydroxypropan-2-yl)amino)-2-phenylthiazolo[5,4-b]pyridine-6-carboxamide] is 440 nM; for `Cc1cc(CNC(=O)c2cnc3sc(-c4cncs4)cc3c2NC(C)C)on1` [Example 35, 4-(isopropylamino)-N-((3-methylisoxazol-5-yl)methyl)-2-(thiazol-5-yl)thieno[2,3-b]pyridine-5-carboxamide] it is 59.7 nM.
The same measure, in the same setting: the figure for `CC(C)(O)[C@H](F)CNC(=O)c1cnc2sc(-c3ccccc3)nc2c1NC1CCCC1` [Example 3, (R)-7-(cyclopentylamino)-N-(2-fluoro-3-hydroxy-3-methylbutyl)-2-phenylthiazolo[5,4-b]pyridine-6-carboxamide] is 34 nM; for `CC(C)Nc1c(C(=O)NCC(C)(C)CO)cnc2sc(-c3cncs3)cc12` [Example 46, N-(3-hydroxy-2,2-dimethylpropyl)-4-(isopropylamino)-2-(thiazol-5-yl)thieno[2,3-b]pyridine-5-carboxamide] it is 272 nM; for `COc1ncc(-c2cc3c(NC(C)C)c(C(=O)NC[C@@H](F)C(C)(C)O)cnc3s2)s1` [Example 58, (R)-N-(2-fluoro-3-hydroxy-3-methylbutyl)-4-(isopropylamino)-2-(2-methoxythiazol-5-yl)thieno[2,3-b]pyridine-5-carboxamide] it is 53.5 nM.
On to `CC(C)(O)CCNC(=O)c1cnc2sc(-c3cccnc3)nc2c1NC1CCOCC1` [Example 12, N-(3-hydroxy-3-methylbutyl)-2-(pyridin-3-yl)-7-((tetrahydro-2H-pyran-4-yl)amino) thiazolo[5,4-b]pyridine-6-carboxamide], for which the IC50 was 168 nM.
On to `C[C@H](CO)Nc1c(C(=O)NC[C@@H](F)C(C)(C)O)cnc2sc(-c3ccccc3)nc12` [Example 6, N-((R)-2-fluoro-3-hydroxy-3-methylbutyl)-7-(((R)-1-hydroxypropan-2-yl)amino)-2-phenylthiazolo[5,4-b]pyridine-6-carboxamide], for which the IC50 came to 39.8 nM.
On the same count and under the same terms, as for `CC(C)CCc1cn(-c2cnc3sc(-c4ccncc4)cc3c2NC(C)C)nn1` [Example 76, 5-(4-isopentyl-1H-1,2,3-triazol-1-yl)-N-isopropyl-2-(pyridin-4-yl)thieno[2,3-b]pyridin-4-amine], the figure is 44.1 nM.
Take `CC(C)Nc1c(C(=O)NCCC2(CO)CC2)cnc2sc(-c3cncs3)cc12` [Example 37, N-(2-(1-(hydroxymethyl)cyclopropyl)ethyl)-4-(isopropylamino)-2-(thiazol-5-yl)thieno[2,3-b]pyridine-5-carboxamide]: the half-inhibitory concentration (IC50) amounted to 384 nM.
On the same count and under the same terms, the figure for `CC(C)Nc1c(C(=O)N[C@H](C)CCO)cnc2sc(-c3cncs3)cc12` [Example 40, (R)-N-(4-hydroxybutan-2-yl)-4-(isopropylamino)-2-(thiazol-5-yl)thieno[2,3-b]pyridine-5-carboxamide] is 126 nM.
For `CC(C)Nc1c(C(=O)NC[C@@H](F)C(C)(C)O)cnc2sc(Nc3ccc(S(C)(=O)=O)cc3)nc12` [Example 17, (R)-N-(2-fluoro-3-hydroxy-3-methylbutyl)-7-(isopropylamino)-2-((4-(methylsulfonyl)phenyl)amino)thiazolo[5,4-b]pyridine-6-carboxamide], the 50% inhibitory concentration (IC50) was 797 nM.
The same measure, in the same setting: as for `CC(=O)N[C@H]1CC[C@H](NC(=O)c2cnc3sc(-c4cncs4)cc3c2NC(C)C)CC1` [Example 45, N-((1r,4r)-4-acetamidocyclohexyl)-4-(isopropylamino)-2-(thiazol-5-yl)thieno[2,3-b]pyridine-5-carboxamide], the figure is 3.7 nM.
The same measure, in the same setting: as for `CC(C)Nc1c(C(=O)NCCC2CC2)cnc2sc(-c3cccnc3)nc12` [Example 19, N-(2-cyclopropylethyl)-7-(isopropylamino)-2-(pyridin-3-yl)thiazolo[5,4-b]pyridine-6-carboxamide], the figure is 72.6 nM; as for `CC(C)Nc1c(C(=O)NC2CC(O)C2)cnc2sc(-c3cncs3)cc12` (stereo not shown) [Example 61, N-(3-hydroxycyclobutyl)-4-(isopropylamino)-2-(thiazol-5-yl) thieno[2,3-b]pyridine-5-carboxamide], 97.5 nM; as for `CC(C)CCNC(=O)c1cnc2sc(-c3ccnnc3)cc2c1NC(C)C` [Example 33, N-isopentyl-4-(isopropylamino)-2-(pyridazin-4-yl)thieno[2,3-b]pyridine-5-carboxamide], 29 nM.
As for `O=C(NCCN1CCC(O)CC1)c1cnc2sc(-c3cccnc3)nc2c1NC1CCOCC1` [Example 13, N-(2-(4-hydroxypiperidin-1-yl)ethyl)-2-(pyridin-3-yl)-7-((tetrahydro-2H-pyran-4-yl)amino)thiazolo[5,4-b]pyridine-6-carboxamide], the 50% inhibitory concentration (IC50) is 517 nM.
For the compound `CC(C)Nc1c(C(=O)N[C@H]2CC[C@H](O)CC2)cnc2sc(-c3cncs3)cc12` [Example 36, N-((1r,4r)-4-hydroxycyclohexyl)-4-(isopropylamino)-2-(thiazol-5-yl)thieno[2,3-b]pyridine-5-carboxamide], the half-maximal inhibitory concentration (IC50) was 20.6 nM.
With `CC(C)(O)[C@H](F)CNC(=O)c1cnc2sc(-c3ccccc3)nc2c1NC1CCOCC1` [Example 4, (R)-N-(2-fluoro-3-hydroxy-3-methylbutyl)-2-phenyl-7-((tetrahydro-2H-pyran-4-yl)amino)thiazolo[5,4-b]pyridine-6-carboxamide], the IC50 is 7.9 nM.
Regarding `CC(C)Nc1c(C(=O)NC[C@@H](F)C(C)(C)O)cnc2sc(-c3cncc(C#N)c3)cc12` [Example 65, (R)-2-(5-cyanopyridin-3-yl)-N-(2-fluoro-3-hydroxy-3-methylbutyl)-4-(isopropylamino)thieno[2,3-b]pyridine-5-carboxamide], the IC50 stood at 18.6 nM.
Same read-out and setting: as for `COCCNC(=O)c1cnc2sc(-c3cncs3)cc2c1Nc1cnn(CC(F)F)c1` [Example 51, 4-((1-(2,2-difluoroethyl)-1H-pyrazol-4-yl)amino)-N-(2-methoxyethyl)-2-(thiazol-5-yl)thieno[2,3-b]pyridine-5-carboxamide], the figure is 1230 nM; as for `CC(C)Nc1c(C(=O)NCC2CCS(=O)(=O)C2)cnc2sc(-c3cncs3)cc12` (stereo not shown) [Example 69, N-((1,1-dioxidotetrahydrothiophen-3-yl)methyl)-4-(isopropylamino)-2-(thiazol-5-yl)thieno[2,3-b]pyridine-5-carboxamide], 72.2 nM; as for `CC(C)Nc1c(-n2cc(CCC(C)(C)O)nn2)cnc2sc(-c3cccnc3)cc12` [Example 74, 4-(1-(4-(isopropylamino)-2-(pyridin-3-yl)thieno[2,3-b]pyridin-5-yl)-1H-1,2,3-triazol-4-yl)-2-methylbutan-2-ol], 171 nM.

A further assay has as its system IL-6 levels in human whole blood stimulated with a TLR2 agonist (lipoteichoic acid). Briefly: IRAK4 Whole Blood Assay. Particulars: 10 μg/mL lipoteichoic acid for 5 hours, IL-6 readout. It is filed as cell-based. As for the experimental part:
Human whole blood containing the anti-coagulant ACD-A was plated in 384-well plate (25 μL/well) and incubated with compounds for 60 minutes at 37° C. in a 5% CO2 incubator. The blood was stimulated with a TLR2 agonist, 10 μg/mL final concentration of lipoteichoic acid (Invivogen, San Diego, CA) in 25 μL RPMI (Gibco) for 5 hours in a 5% CO2 incubator. At the end of the incubation, plates were centrifuged at 2300 rpm for 5 minutes. Supernatants were harvested and analyzed for IL-6 levels by Flow Cytometry beads assay (BD Biosciences, San Jose, CA).
`CC(C)(O)[C@H](F)CNC(=O)c1cnc2sc(-c3cncs3)cc2c1NC1COC1` [Example 53, (R)-N-(2-fluoro-3-hydroxy-3-methylbutyl)-4-(oxetan-3-ylamino)-2-(thiazol-5-yl)thieno[2,3-b]pyridine-5-carboxamide] had an EC50 of 3650 nM.
Still for that read-out and setting: the figure for `Cc1ncc(-c2cc3c(NC(C)C)c(C(=O)NC[C@@H](F)C(C)(C)O)cnc3s2)s1` [Example 57, (R)-N-(2-fluoro-3-hydroxy-3-methylbutyl)-4-(isopropylamino)-2-(2-methylthiazol-5-yl)thieno[2,3-b]pyridine-5-carboxamide] is 3540 nM; for `CC(C)Nc1c(C(=O)NCCc2ccncc2)cnc2sc(-c3ccc(=O)[nH]c3)cc12` [Example 71, 4-(isopropylamino)-2-(6-oxo-1,6-dihydropyridin-3-yl)-N-(2-(pyridin-4-yl)ethyl)thieno[2,3-b]pyridine-5-carboxamide] it is more than 20000 nM.
Same read-out and setting: as for `CC(C)Nc1c(C(=O)NC[C@@H](F)C(C)(C)O)cnc2sc(-c3cn[nH]c3)cc12` [Example 21, (R)-N-(2-fluoro-3-hydroxy-3-methylbutyl)-4-(isopropylamino)-2-(1H-pyrazol-4-yl)thieno[2,3-b]pyridine-5-carboxamide], the figure is more than 20000 nM.
Same read-out and setting: the figure for `COC(=O)N[C@H]1CC[C@H](NC(=O)c2cnc3sc(-c4cncs4)cc3c2NC(C)C)CC1` [Example 50, methyl ((1r,4r)-4-(4-(isopropylamino)-2-(thiazol-5-yl)thieno[2,3-b]pyridine-5-carboxamido)cyclohexyl)carbamate] is 5310 nM.
